Results published in US9242981B2, “Fused pyrazole derivatives as novel ERK inhibitors” (Merck Sharp & Dohme Corp., priority 2010, dated 2016).

Target: Mouse ERK2 protein (Mus musculus (Mouse), UniProt P63085)
Experiment: Coupled MEK1/ERK2 IMAP assay or Active ERK2 IMAP assay
Type: biochemical
Conditions: Table 1, class symbols, 30 μM ATP

Mouse ERK2 protein, sequence (P63085 whole entry): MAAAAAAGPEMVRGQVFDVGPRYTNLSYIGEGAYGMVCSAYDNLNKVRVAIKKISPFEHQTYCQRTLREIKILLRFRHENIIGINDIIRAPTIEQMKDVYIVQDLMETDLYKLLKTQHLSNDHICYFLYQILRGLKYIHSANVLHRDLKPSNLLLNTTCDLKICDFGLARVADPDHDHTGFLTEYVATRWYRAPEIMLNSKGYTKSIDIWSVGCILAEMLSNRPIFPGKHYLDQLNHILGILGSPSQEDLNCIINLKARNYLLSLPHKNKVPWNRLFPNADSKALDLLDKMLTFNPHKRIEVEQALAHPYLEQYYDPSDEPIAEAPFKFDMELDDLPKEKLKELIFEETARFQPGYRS

How did the IC50 turn out when `O=C(NC1CNCC(c2ccccc2)C1)N1CCc2[nH]nc(-c3ccncc3)c2C1` (centres unmarked) [Compound 47, 1,4,6,7-tetrahydro-N-(5-phenyl-3-piperidinyl)-3-(4-pyridinyl)-5H-pyrazolo[4,3-c]pyridine-5-carboxamide] was run?
Its IC50 is < 20 nM.

Which IC50 does the source give for `COc1ccc(CN2CCC[C@@H](NC(=O)N3CCc4[nH]nc(-c5ccnc(C)c5)c4C3)C2)c2ccccc12` [Compound 99, 1,4,6,7-tetrahydro-N-[1-[(4-Methoxy-1-naphthalenyl)-methyl]-3(R)-piperidinyl]-3-(2-methyl-4-pyridinyl)-5H-pyrazolo[4,3-c]pyridine-5-carboxamide] here?
The IC50 was 21 to 100 nM.

For `Cc1ccccc1[C@@H]1CN(C)C[C@H]1NC(=O)N1CCc2[nH]nc(-c3ccc(F)cc3)c2C1` (racemic) [Compound 141, 3-(4-fluorophenyl)-1,4,6,7-tetrahydro-N-[trans-1-methyl-4-(2-methylphenyl)-3-pyrrolidinyl]-5H-pyrazolo[4,3-c]pyridine-5-carboxamide], which IC50 is on record?
The IC50 was < 20 nM.

`O=C(C(CO)c1ccccc1)N1CCc2[nH]nc(-c3ccncc3)c2C1` (stereo not drawn) [Compound 38, 1,4,6,7-tetrahydro-gamma-oxo-beta-phenyl-3-(4-pyridinyl)-5H-pyrazolo[4,3-c]pyridine-5-propanol] was tested. Which IC50 did it give?
The IC50 was 1000 to 100000 nM.

With `CC(C)(C)OC(=O)N1C[C@@H](NC(=O)N2CCc3[nH]nc(-c4ccncc4)c3C2)[C@H](c2cccc(-c3ccccc3)c2)C1` (racemic) [Compound 165, 1,1-dimethylethyl trans-3-[1,1′-biphenyl]-3-yl-4-[[[1,4,6,7-tetrahydro-3-(4-pyridinyl)-5H-pyrazolo[4,3-c]pyridin-5-yl]carbonyl]amino]-1-pyrrolidinecarboxylate] as the compound, how does the IC50 read?
Its IC50 is 101 to 1000 nM.

Which IC50 does the source give for `CS(=O)(=O)c1cccc(CC(=O)N2CCc3[nH]nc(-c4ccncc4)c3C2)c1` [Compound 31] here?
Its IC50 is 101 to 1000 nM.

For `Cn1cnc(CN2CCC[C@@H](NC(=O)N3CCc4[nH]nc(-c5ccncc5)c4C3)C2)c1` [Compound 64, 1,4,6,7-tetrahydro-N-[1-[(1-methyl-1H-imidazoL-4-yl)methyl]-3(R)-piperidinyl]-3-(4-pyridinyl)-5H-pyrazolo[4,3-c]pyridine-5-carboxamide], which IC50 is on record?
The IC50 was 101 to 1000 nM.

How did the IC50 turn out when `O=C(N[C@@H]1CCC[C@H]1c1ccccc1)N1CCc2[nH]nc(-c3ccncc3)c2C1` (racemic) [Compound 143, 1,4,6,7-tetrahydro-N-[trans-2-phenylcyclopentyl]-3-(4-pyridinyl)-5H-pyrazolo[4,3-c]pyridine-5-carboxamide] was run?
The IC50 was < 20 nM.

How did the IC50 turn out when `COc1cccc(F)c1CN1[C@H]2CC[C@@H](NC(=O)N3CCc4[nH]nc(-c5ccnc(C)c5)c4C3)[C@@H]1CC2` [Compound 162, N-[exo-8-[(2-fluoro-6-methoxyphenyl)methyl]-8-azabicyclo[3.2.1]oct-2-yl]-1,4,6,7-tetrahydro-3-(2-methyl-4-pyridinyl)-5H-pyrazolo[4,3-c]pyridine-5-carboxamide] was run?
Its IC50 is 21 to 100 nM.

How did the IC50 turn out when `Cc1nc2ccc(-c3n[nH]c4c3CN(C(=O)N[C@@H]3CCCN(Cc5csc6ccccc56)C3)CC4)cc2o1` [Compound 189, N-[1-(benzo[b]thien-3-ylmethyl)-3(R)-piperidinyl]-1,4,6,7-tetrahydro-3-(2-methyl-6-benzoxazolyl)-5H-pyrazolo[4,3-c]pyridine-5-carboxamide] was run?
The IC50 was < 20 nM.

`Cc1nc2cc(-c3n[nH]c4c3CN(C(=O)N[C@@H]3CCCN(Cc5ccccc5)C3)CC4)ccc2s1` [Compound 190, 1,4,6,7-tetrahydro-3-(2-methyl-5-benzothiazolyl)-N-[1-(phenylmethyl)-3(R)-piperidinyl]-5H-pyrazolo[4,3-c]pyridine-5-carboxamide] was tested. Which IC50 did it give?
Its IC50 is 101 to 1000 nM.

Which IC50 does the source give for `O=C(N[C@@H]1CCCN(Cc2ncc[nH]2)C1)N1CCc2[nH]nc(-c3ccncc3)c2C1` [Compound 63, 1,4,6,7-tetrahydro-N-[1-(1H-imidazoL-2-ylmethyl)-3(R)-piperidinyl]-3-(4-pyridinyl)-5H-pyrazolo[4,3-c]pyridine-5-carboxamide] here?
The IC50 was 101 to 1000 nM.

How did the IC50 turn out when `COc1ccccc1CC(=O)N1CCc2[nH]nc(-c3ccncc3)c2C1` [Compound 10, 4,5,6,7-tetrahydro-5-[(2-methoxyphenyl)acetyl]-3-(4-pyridinyl)-1H-pyrazolo[4,3-c]pyridine] was run?
The IC50 was 1000 to 100000 nM.

For `O=C(N[C@@H]1CCCN(Cc2ccccc2)C1)N1CCc2[nH]nc(-c3ccncc3)c2C1` (single isomer, unassigned) [Compound 175], which IC50 is on record?
The IC50 was < 20 nM.

For `Cc1cc(-c2n[nH]c3c2CN(C(=O)N[C@H]2CN(Cc4c(F)cccc4F)CC(F)(F)C2)CC3)ccn1` [Compound 180, N-[1-[(2,6-difluorophenyl)methyl]-5,5-difluoro-3(R)-piperidinyl]-1,4,6,7-tetrahydro-3-(2-methyl-4-pyridinyl)-5H-pyrazolo[4,3-c]pyridine-5-carboxamide], which IC50 is on record?
Its IC50 is 21 to 100 nM.

For `COc1cccc(F)c1CN1CCC[C@@H](NC(=O)N2CCc3[nH]nc(-c4ccc5nc(C)sc5c4)c3C2)C1` [Compound 170, N-[1-[(2-fluoro-6-methoxyphenyl)methyl]-3(R)-piperidinyl]-1,4,6,7-tetrahydro-3-(2-methyl-6-benzothiazolyl)-5H-pyrazolo[4,3-c]pyridine-5-carboxamide], which IC50 is on record?
The IC50 was < 20 nM.

With `Cc1cc(-c2n[nH]c3c2CN(C(=O)NC2CC(C)CN(Cc4cc5ccccc5n4C)C2)CC3)ccn1` (centres unmarked) [Compound 102, 1,4,6,7-tetrahydro-N-[5-methyl-1-[(1-methyl-1H-indol-2-yl)methyl]-3-piperidinyl]-3-(2-methyl-4-pyridinyl)-5H-pyrazolo[4,3-c]pyridine-5-carboxamide] as the compound, how does the IC50 read?
The IC50 was 21 to 100 nM.

With `Cc1nc2ccc(-c3n[nH]c4c3CN(C(=O)N[C@@H]3CCCN(Cc5ccccc5)C3)CC4)cc2o1` [Compound 185, 1,4,6,7-tetrahydro-3-(2-methyl-6-benzoxazolyl)-N-[1-(phenylmethyl)-3(R)-piperidinyl]-5H-pyrazolo[4,3-c]pyridine-5-carboxamide] as the compound, how does the IC50 read?
The IC50 was 21 to 100 nM.

Which IC50 does the source give for `Cc1nc2cc(-c3n[nH]c4c3CN(C(=O)N[C@@H]3CCCN(Cc5cccc6cnccc56)C3)CC4)ccc2o1` [Compound 142, 1,4,6,7-tetrahydro-N-[1-(5-isoquinolinylmethyl)-3(R)-pipendinyl]-3-(2-methyl-5-benzoxazolyl)-5H-pyrazolo[4,3-c]pyridine-5-carboxamide] here?
The IC50 was 101 to 1000 nM.

How did the IC50 turn out when `CCC1(NC(=O)N2CCc3[nH]nc(-c4ccnc(C)c4)c3C2)CCCN(Cc2csc3ccccc23)C1` (centres unmarked) [Compound 93, N-[1-(benzo[b]thien-3-ylmethyl)-3-ethyl-3-piperidinyl]-1,4,6,7-tetrahydro-3-(2-methyl-4-pyridinyl)-5H-pyrazolo[4,3-c]pyridine-5-carboxamide] was run?
Its IC50 is 101 to 1000 nM.

`O=C(N[C@H]1CNC[C@@H]1c1ccccc1)[C@H]1CCc2[nH]nc(-c3ccc4ncsc4c3)c2C1` (racemic) [Compound 44, 3-(6-benzothiazolyl)-4,5,6,7-tetrahydro-N-(trans-4-phenyl-3-pyrrolidinyl)-1H-indazole-5(S)-carboxamide] was tested. Which IC50 did it give?
The IC50 was 1000 to 100000 nM.

How did the IC50 turn out when `O=C(Cc1cccc(Br)c1)N1CCc2[nH]nc(-c3ccncc3)c2C1` [Compound 9, 5-[(3-bromophenyl)acetyl]-4,5,6,7-tetrahydro-3-(4-pyridinyl)-1H-pyrazolo[4,3-c]pyridine] was run?
Its IC50 is 101 to 1000 nM.

`Cc1ccc(C2CN(C)CC2NC(=O)N2CCc3[nH]nc(-c4ccncc4)c3C2)cc1` (racemic) [Compound 159, 1,4,6,7-tetrahydro-N-[trans-1 methyl-4-(4-methylphenyl)-3-pyrrrolidinyl]-3-(4-pyridinyl)-5H-pyrazolo[4,3-c]pyridine-5-carboxamide] was tested. Which IC50 did it give?
Its IC50 is < 20 nM.
